# Measured values taken from patent publication US12281225B2, “Process for preparing stable polymers containing vinylimidazole” (BASF SE, priority 2018, dated 2025).
# Assays:
# [1] = Analysis of active substance: preservative concentration before and after storage in VI-containing polymer solution; assay type: physicochemical; conditions: for active-substance concentration, 0 d, RT: before storage; for active-substance concentration, 14 d, 40° C.: storage 14 d at 40° C.; for active-substance concentration, 28 d, 40° C.: storage 28 d at 40° C.; for active-substance concentration, 60 d 40° C.: storage 60 d at 40° C.
# How it was run: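 Preservatives (MIT, BIT, CMIT, OIT, DCOIT, iodopropynyl butyl carbamate) in aqueous vinylpyrrolidone–vinylimidazole copolymer solution quantified after dilution by isocratic RP18 chromatography with UV detection, using an acid-methanol eluent.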
# [2] = Iodine color number according to DIN 6162:2014-09; assay type: physicochemical
# [3] = tested on: Bacteria: Escherichia coli, Staphylococcus aureus, Pseudomonas aeruginosa, Pseudomonas putida, Burkholderia cepacia, Alcaligenes faecalis; assay: Preservation test with periodic inoculation, bacteria assessment; assay type: cell-based; conditions: for Start sample measurement, bact. assess., 4th inoculation: freshly formulated; for 60 d 40° C., bact. assess., 4th inoculation: sample stored 60 d at 40° C.
# How it was run: (§1)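 Semiquantitative growth scores (−− no growth to ++ strong growth) from weekly agar streaks incubated 3 days at 25 °C. Preserved polymer samples got four weekly 0.5 ml inoculations (titer 10^9 organisms/ml), the first two days after preservative addition; testing began fresh and after 60-day storage at 40 °C.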
# [4] = tested on: Yeast: Candida albicans, Candida valida, Rhodotorula rura, Saccharomyces cerevisiae; assay: Preservation test with periodic inoculation, yeast assessment; assay type: cell-based; conditions: for 60 d 40° C., yeast assess., 4th inoculation: sample stored 60 d at 40° C.; for Start sample measurement, yeast assess., 4th inoculation: freshly formulated
# How it was run: as §1
# [5] = Polymer P5 (HP56) with stabilizer
smiles,measurement,setting,value
"O=c1[nH]sc2ccccc12 [BIT, 1,2-benzisothiazolin-3-one]","active-substance concentration, 0 d, RT",[1]; in Polymer P1,150 ppm
same,"active-substance concentration, 14 d, 40° C.",[1]; in Polymer P1,101 ppm
same,"active-substance concentration, 28 d, 40° C.",[1]; in Polymer P1,85 ppm
same,"active-substance concentration, 60 d 40° C.",[1]; in Polymer P1,69 ppm
same,"active-substance concentration, 0 d, RT",[1]; in Polymer P2,150 ppm
same,"active-substance concentration, 14 d, 40° C.",[1]; in Polymer P2,112 ppm
same,"active-substance concentration, 28 d, 40° C.",[1]; in Polymer P2,93 ppm
same,"active-substance concentration, 60 d 40° C.",[1]; in Polymer P2,80 ppm
same,"active-substance concentration, 0 d, RT",[1]; in Polymer P3,150 ppm
same,"active-substance concentration, 14 d, 40° C.",[1]; in Polymer P3,119 ppm
same,"active-substance concentration, 28 d, 40° C.",[1]; in Polymer P3,99 ppm
same,"active-substance concentration, 60 d 40° C.",[1]; in Polymer P3,80 ppm
same,"active-substance concentration, 0 d, RT",[1]; in Polymer P4,150 ppm
same,"active-substance concentration, 14 d, 40° C.",[1]; in Polymer P4,117 ppm
same,"active-substance concentration, 28 d, 40° C.",[1]; in Polymer P4,93 ppm
same,"active-substance concentration, 60 d 40° C.",[1]; in Polymer P4,82 ppm
same,"active-substance concentration, 0 d, RT",[1]; in Polymer P5 (HP56),150 ppm
same,"active-substance concentration, 14 d, 40° C.",[1]; in Polymer P5 (HP56),101 ppm
same,"active-substance concentration, 28 d, 40° C.",[1]; in Polymer P5 (HP56),85 ppm
same,"active-substance concentration, 60 d 40° C.",[1]; in Polymer P5 (HP56),69 ppm
same,"active-substance concentration, 0 d, RT",[1]; in Polymer P6,150 ppm
same,"active-substance concentration, 14 d, 40° C.",[1]; in Polymer P6,99 ppm
same,"active-substance concentration, 28 d, 40° C.",[1]; in Polymer P6,83 ppm
same,"active-substance concentration, 60 d 40° C.",[1]; in Polymer P6,66 ppm
same,"active-substance concentration, 0 d, RT",[1]; in Polymer P7,150 ppm
same,"active-substance concentration, 14 d, 40° C.",[1]; in Polymer P7,105 ppm
same,"active-substance concentration, 28 d, 40° C.",[1]; in Polymer P7,88 ppm
same,"active-substance concentration, 60 d 40° C.",[1]; in Polymer P7,72 ppm
same,"active-substance concentration, 0 d, RT",[1]; in Polymer P8,150 ppm
same,"active-substance concentration, 14 d, 40° C.",[1]; in Polymer P8,101 ppm
same,"active-substance concentration, 28 d, 40° C.",[1]; in Polymer P8,85 ppm
same,"active-substance concentration, 60 d 40° C.",[1]; in Polymer P8,69 ppm
same,"active-substance concentration, 0 d, RT",[1]; in Polymer P9,150 ppm
same,"active-substance concentration, 14 d, 40° C.",[1]; in Polymer P9,97 ppm
same,"active-substance concentration, 28 d, 40° C.",[1]; in Polymer P9,78 ppm
same,"active-substance concentration, 60 d 40° C.",[1]; in Polymer P9,60 ppm
same,"Iodine color number, 60 d 40° C.",[2]; Polymer P1 with stabilizer,6.0
same,"Iodine color number, start",[2]; Polymer P1 with stabilizer,2.6
same,"Iodine color number, 60 d 40° C.",[2]; Polymer P2 with stabilizer,7.1
same,"Iodine color number, start",[2]; Polymer P2 with stabilizer,2.9
same,"Iodine color number, 60 d 40° C.",[2]; Polymer P3 with stabilizer,9.3
same,"Iodine color number, start",[2]; Polymer P3 with stabilizer,3.4
same,"Iodine color number, 60 d 40° C.",[2]; Polymer P4 with stabilizer,9.2
same,"Iodine color number, start",[2]; Polymer P4 with stabilizer,3.4
same,"Iodine color number, 60 d 40° C.",[2]; [5],10.4
same,"Iodine color number, start",[2]; [5],3.6
same,"Iodine color number, 60 d 40° C.",[2]; Polymer P6 with stabilizer,10.0
same,"Iodine color number, start",[2]; Polymer P6 with stabilizer,3.6
same,"Iodine color number, 60 d 40° C.",[2]; Polymer P7 with stabilizer,10.0
same,"Iodine color number, start",[2]; Polymer P7 with stabilizer,3.6
same,"Iodine color number, 60 d 40° C.",[2]; Polymer P8 with stabilizer,10.4
same,"Iodine color number, start",[2]; Polymer P8 with stabilizer,3.4
same,"Iodine color number, 60 d 40° C.",[2]; Polymer P9 with stabilizer,12.8
same,"Iodine color number, start",[2]; Polymer P9 with stabilizer,4.0
same,"Start sample measurement, bact. assess., 4th inoculation",[3]; Polymer P1,"− (slight growth, max. 100 colonies)"
same,"60 d 40° C., bact. assess., 4th inoculation",[3]; Polymer P1,+
same,"Start sample measurement, bact. assess., 4th inoculation",[3]; Polymer P2,"− (slight growth, max. 100 colonies)"
same,"60 d 40° C., bact. assess., 4th inoculation",[3]; Polymer P2,++
same,"Start sample measurement, bact. assess., 4th inoculation",[3]; Polymer P3,"− (slight growth, max. 100 colonies)"
same,"60 d 40° C., bact. assess., 4th inoculation",[3]; Polymer P3,++
same,"60 d 40° C., bact. assess., 4th inoculation",[3]; Polymer P4,+
same,"60 d 40° C., bact. assess., 4th inoculation",[3]; Polymer P5 (HP56),++
same,"60 d 40° C., bact. assess., 4th inoculation",[3]; Polymer P6,+
same,"60 d 40° C., bact. assess., 4th inoculation",[3]; Polymer P7,++
same,"Start sample measurement, bact. assess., 4th inoculation",[3]; Polymer P8,"− (slight growth, max. 100 colonies)"
same,"60 d 40° C., bact. assess., 4th inoculation",[3]; Polymer P8,+
same,"60 d 40° C., bact. assess., 4th inoculation",[3]; Polymer P9,++
same,"60 d 40° C., yeast assess., 4th inoculation",[4]; Polymer P1,+
same,"60 d 40° C., yeast assess., 4th inoculation",[4]; Polymer P2,++
same,"Start sample measurement, yeast assess., 4th inoculation",[4]; Polymer P3,"− (slight growth, max. 100 colonies)"
same,"60 d 40° C., yeast assess., 4th inoculation",[4]; Polymer P3,++
same,"Start sample measurement, yeast assess., 4th inoculation",[4]; Polymer P4,"− (slight growth, max. 100 colonies)"
same,"60 d 40° C., yeast assess., 4th inoculation",[4]; Polymer P4,++
same,"Start sample measurement, yeast assess., 4th inoculation",[4]; Polymer P5 (HP56),"− (slight growth, max. 100 colonies)"
same,"60 d 40° C., yeast assess., 4th inoculation",[4]; Polymer P5 (HP56),++
same,"Start sample measurement, yeast assess., 4th inoculation",[4]; Polymer P6,"− (slight growth, max. 100 colonies)"
same,"60 d 40° C., yeast assess., 4th inoculation",[4]; Polymer P6,++
same,"Start sample measurement, yeast assess., 4th inoculation",[4]; Polymer P7,"− (slight growth, max. 100 colonies)"
same,"60 d 40° C., yeast assess., 4th inoculation",[4]; Polymer P7,++
same,"60 d 40° C., yeast assess., 4th inoculation",[4]; Polymer P8,+
same,"Start sample measurement, yeast assess., 4th inoculation",[4]; Polymer P9,"− (slight growth, max. 100 colonies)"
same,"60 d 40° C., yeast assess., 4th inoculation",[4]; Polymer P9,++
